Key:
Assay type in all cases: in vivo
Tetranychus urticae = Tetranychus urticae (two-spotted spider mite): feeding/contact activity; conditions: 192 h, application rate 200 ppm, mixed population (mobile stages), 8 days after infestation, read-out: mortality
Description: Bean leaf discs on agar in 24-well microtiter plates were sprayed with aqueous test solutions prepared from 10'000 ppm DMSO stock solutions. After drying the leaf discs were infested with a mite population of mixed ages. The samples were assessed for mortality on mixed population (mobile stages) 8 days after infestation.

Plutella xylostella = Plutella xylostella (diamond back moth), artificial diet; conditions: 120 h, application rate 200 ppm, L2 larvae, 5 days after infestation, read-out: effect in at least one of the two categories (mortality or growth inhibition)
How it was run: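 Artificial diet in 24-well plates treated with aqueous test solutions made from 10'000 ppm DMSO stocks, dried, then infested with L2 larvae (10 to 15 per well). Mortality and growth inhibition scored against untreated samples 5 days after infestation; activity cut-off at least 80% in either category at 200 ppm.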

Diabrotica balteata = Diabrotica balteata (corn root worm), sprayed maize sprouts; conditions: 96 h, application rate 200 ppm, L2 larvae, 4 days after infestation, read-out: effect in at least one of the two categories (mortality or growth inhibition)
How it was run: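 Maize sprouts on agar sprayed with aqueous dilutions of DMSO stocks, dried, then infested with L2 larvae (6–10 per well). Mortality and growth inhibition scored against untreated controls 4 days after infestation, at 200 ppm application rate.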

Spodoptera littoralis [1] = experiment: Spodoptera littoralis (Egyptian cotton leaf worm), uptake by lettuce roots from agar; conditions: 144 h, read-out: effect in at least one of the three categories (mortality, anti-feeding, or growth inhibition)
How it was run: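 Compound from 10'000 ppm DMSO stocks was mixed into agar, and lettuce grew on it for 7 days to take it up via roots. Cut leaves were infested with Spodoptera eggs; mortality, anti-feedant effect and growth inhibition scored 6 days later versus untreated samples.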

Spodoptera littoralis [2] = experiment: Spodoptera littoralis (Egyptian cotton leaf worm), sprayed cotton leaf discs; conditions: foliar, 72 h, application rate 200 ppm, L1 larvae, 3 days after infestation, read-out: control (mortality, anti-feeding effect, growth inhibition)
How it was run: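 Cotton leaf discs on agar sprayed with aqueous test solutions made from 10'000 ppm DMSO stock; after drying, infested with five L1 larvae. Mortality, anti-feeding and growth inhibition scored versus untreated samples 3 days after infestation; control counted when any category exceeds untreated.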

Thrips tabaci = Thrips tabaci (onion thrips): feeding/contact activity; conditions: 144 h, application rate 200 ppm, Thrips population of mixed ages, 6 days after infestation, read-out: mortality
Description: Sunflower leaf discs were placed on agar in 24-well microtiter plates and sprayed with aqueous test solutions prepared from 10'000 ppm DMSO stock solutions. After drying the leaf discs were infested with a Thrips population of mixed ages. The samples were assessed for mortality 6 days after infestation.

Euschistus heros = Euschistus heros (neotropical brown stink bug), sprayed soybean leaves; conditions: 120 h, application rate 200 ppm, N2 nymphs, 5 days after infestation, read-out: effect in at least one of the two categories (mortality or growth inhibition)
How it was run: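 Soybean leaves on agar sprayed with aqueous dilutions of DMSO stocks, dried, then infested with N2 nymphs. Mortality and growth inhibition scored against untreated samples 5 days after infestation; application rate 200 ppm.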

Myzus persicae = Myzus persicae (green peach aphid): feeding/contact activity; conditions: 144 h, application rate 200 ppm, aphid population of mixed ages, 6 days after infestation, read-out: mortality
Description: Sunflower leaf discs were placed onto agar in a 24-well microtiter plate and sprayed with aqueous test solutions prepared from 10'000 ppm DMSO stock solutions. After drying, the leaf discs were infested with an aphid population of mixed ages. The samples were assessed for mortality 6 days after infestation.

CCS(=O)(=O)N1CC(NC(=O)c2ccc(C3=NO[C@@](c4cc(Cl)c(Cl)c(Cl)c4)(C(F)(F)F)C3)cc2C)CO1 (stereo partly drawn) [Compound A27, N-(2-ethylsulfonylisoxazolidin-4-yl)-2-methyl-4-[(5S)-5-(3,4,5-trichlorophenyl)-5-(trifluoromethyl)-4H-isoxazol-3-yl]benzamide]
≥ 80%: mortality at 200 ppm (Tetranychus urticae) | percent effect (mortality or growth inhibition) at 200 ppm (Plutella xylostella) | percent effect (mortality or growth inhibition) at 200 ppm (Diabrotica balteata) | percent control (mortality, anti-feedant effect or growth inhibition) at 12.5 ppm (Spodoptera littoralis [1]) | mortality at 200 ppm (Spodoptera littoralis [2]) | mortality at 200 ppm (Thrips tabaci) | percent effect (mortality or growth inhibition) at 200 ppm (Euschistus heros) | mortality at 200 ppm (Myzus persicae)

Cc1cc(C2=NO[C@@](c3cc(Cl)c(F)c(Cl)c3)(C(F)(F)F)C2)ccc1C(=O)NC1CON(S(=O)(=O)N(C)C#N)C1 (stereo partly drawn) [Compound A81, N-[2-[cyano(methyl)sulfamoyl]isoxazolidin-4-yl]-4-[(5S)-5-(3,5-dichloro-4-fluoro-phenyl)-5-(trifluoromethyl)-4H-isoxazol-3-yl]-2-methyl-benzamide]
≥ 80%: mortality at 200 ppm (Tetranychus urticae) | percent effect (mortality or growth inhibition) at 200 ppm (Plutella xylostella) | percent effect (mortality or growth inhibition) at 200 ppm (Diabrotica balteata) | percent control (mortality, anti-feedant effect or growth inhibition) at 12.5 ppm (Spodoptera littoralis [1]) | mortality at 200 ppm (Spodoptera littoralis [2]) | mortality at 200 ppm (Thrips tabaci) | percent effect (mortality or growth inhibition) at 200 ppm (Euschistus heros) | mortality at 200 ppm (Myzus persicae)

CN(C)S(=O)(=O)N1C[C@@H](NC(=O)c2ccc(C3=NO[C@@](c4cc(Cl)cc(C(F)(F)F)c4)(C(F)(F)F)C3)cc2Cl)CO1 [Compound A108]
≥ 80%: mortality at 200 ppm (Tetranychus urticae) | percent effect (mortality or growth inhibition) at 200 ppm (Plutella xylostella) | percent effect (mortality or growth inhibition) at 200 ppm (Diabrotica balteata) | percent control (mortality, anti-feedant effect or growth inhibition) at 12.5 ppm (Spodoptera littoralis [1]) | mortality at 200 ppm (Spodoptera littoralis [2]) | mortality at 200 ppm (Thrips tabaci) | percent effect (mortality or growth inhibition) at 200 ppm (Euschistus heros) | mortality at 200 ppm (Myzus persicae)

Cc1cc(C2=NOC(c3ccc(Cl)c(Cl)c3)(C(F)(F)F)C2)ccc1C(=O)NC1CON(S(C)(=O)=O)C1 (stereo not drawn) [Compound A66]
≥ 80%: mortality at 200 ppm (Tetranychus urticae) | percent effect (mortality or growth inhibition) at 200 ppm (Plutella xylostella) | percent effect (mortality or growth inhibition) at 200 ppm (Diabrotica balteata) | percent effect (mortality, anti-feeding or growth inhibition) at 12.5 ppm (Spodoptera littoralis [1]; test rate 12.5 ppm, eggs, 6 days after infestation) | mortality at 200 ppm (Spodoptera littoralis [2]) | mortality at 200 ppm (Thrips tabaci) | percent effect (mortality or growth inhibition) at 200 ppm (Euschistus heros) | mortality at 200 ppm (Myzus persicae)

Cc1cc(C2=NO[C@@](c3cc(Cl)c(Cl)c(Cl)c3)(C(F)(F)F)C2)ccc1C(=O)N[C@@H]1CON(S(=O)(=O)N(C)C)C1 (single isomer, unassigned) [Compound A112]
≥ 80%: mortality at 200 ppm (Tetranychus urticae) | percent effect (mortality or growth inhibition) at 200 ppm (Plutella xylostella) | percent effect (mortality or growth inhibition) at 200 ppm (Diabrotica balteata) | percent control (mortality, anti-feedant effect or growth inhibition) at 12.5 ppm (Spodoptera littoralis [1]) | mortality at 200 ppm (Spodoptera littoralis [2]) | mortality at 200 ppm (Thrips tabaci) | percent effect (mortality or growth inhibition) at 200 ppm (Euschistus heros) | mortality at 200 ppm (Myzus persicae)

CNS(=O)(=O)N1CC(NC(=O)c2ccc(C3=NO[C@@](c4cc(Cl)c(Cl)c(Cl)c4)(C(F)(F)F)C3)cc2C)CO1 (stereo partly drawn) [Compound A69, 2-methyl-N-[2-(methylsulfamoyl)isoxazolidin-4-yl]-4-[(5S)-5-(3,4,5-trichlorophenyl)-5-(trifluoromethyl)-4H-isoxazol-3-yl]benzamide]
≥ 80%: mortality at 200 ppm (Tetranychus urticae) | percent effect (mortality or growth inhibition) at 200 ppm (Plutella xylostella) | percent effect (mortality or growth inhibition) at 200 ppm (Diabrotica balteata) | percent control (mortality, anti-feedant effect or growth inhibition) at 12.5 ppm (Spodoptera littoralis [1]) | mortality at 200 ppm (Spodoptera littoralis [2]) | mortality at 200 ppm (Thrips tabaci) | percent effect (mortality or growth inhibition) at 200 ppm (Euschistus heros) | mortality at 200 ppm (Myzus persicae)

— patent US10588317B2, “Isoxazoline-substituted benzamides and analogues as insecticides” (priority 2015, dated 2020)
